Laboratory results published in US8304419B2, “Chemical compounds” (priority 2007, dated 2012).
pIC50: −log10 of the molar value. Where a name gives a salt, the structure may show the parent alone.

What follows are molecules tested on HIV wild type (WTRVA) (assay: HeLa cell assay, wild type virus (WTRVA)). Conditions: Human immunodeficiency virus 1, HeLa, HeLa cell assay; read-out: IC50 against WTRVA.
Type: cell-based, HIV-1
Parameters: scale not given here

Compound | pIC50
CN(C)Cc1cc(C#N)cc(Oc2c(Cl)ccc(CNC(=O)c3[nH]cnc3Cl)c2F)c1 [Example 311, 4-chloro-N-{[4-chloro-3-({3-cyano-5-[(dimethylamino)methyl]phenyl}oxy)-2-fluorophenyl]methyl}-1H-imidazole-5-carboxamide trifluoroacetate] | > 8.00
C[C@@H](O)C#Cc1cc(Cl)cc(Oc2c(Cl)ccc(CNC(=O)c3[nH]cnc3Cl)c2F)c1 [Example 319, 4-chloro-N-{[4-chloro-3-({3-chloro-5-[(3R)-3-hydroxy-1-butyn-1-yl]phenyl}oxy)-2-fluorophenyl]methyl}-1H-imidazole-5-carboxamide] | > 8.00
CCc1cc(C#N)cc(Oc2c(Cl)ccc(CNC(=O)c3[nH]cnc3Cl)c2F)c1 [Example 148, 4-chloro-N-({4-chloro-3-[(3-cyano-5-ethylphenyl)oxy]-2-fluorophenyl}methyl)-1H-imidazole-5-carboxamide] | > 8.00
Cc1nc(Cl)c(C(=O)NCc2ccc(Cl)c(Oc3cc(C#N)cc(C4CC4)n3)c2F)[nH]1 [Example 273, 4-Chloro-N-({4-chloro-3-[(4-cyano-6-cyclopropyl-2-pyridinyl)oxy]-2-fluorophenyl}methyl)-2-methyl-1H-imidazole-5-carboxamide] | > 8.00
C#Cc1cc(Cl)cc(Oc2c(Cl)ccc(CNC(=O)c3[nH]cnc3Cl)c2F)c1 [Example 293, 4-chloro-N-({4-chloro-3-[(3-chloro-5-ethynylphenyl)oxy]-2-fluorophenyl}methyl)-1H-imidazole-5-carboxamide] | > 8.00
N#Cc1cc(Cl)cc(Oc2c(Br)ccc(CNC(=O)c3[nH]cnc3Br)c2F)c1 [Example 377, 4-bromo-N-({4-bromo-3-[(3-chloro-5-cyanophenyl)oxy]-2-fluorophenyl}methyl)-1H-imidazole-5-carboxamide] | > 8.00
Cc1nc(Cl)c(C(=O)NCc2ccc(Cl)c(Oc3cc(Br)cc(C#N)c3)c2F)[nH]1 [Example 299, N-({3-[(3-bromo-5-cyanophenyl)oxy]-4-chloro-2-fluorophenyl}methyl)-4-chloro-2-methyl-1H-imidazole-5-carboxamide] | > 8.00
C=C(C)c1cc(C#N)cc(Oc2c(Cl)ccc(CNC(=O)c3[nH]cnc3Cl)c2F)c1 [Example 158, 4-chloro-N-[(4-chloro-3-{[3-cyano-5-(1-methylethenyl)phenyl]oxy}-2-fluorophenyl)methyl]-1H-imidazole-5-carboxamide] | > 8.00
N#Cc1cc(Cl)cc(Oc2c(Cl)ccc(CNC(=O)c3[nH]ccc3Br)c2F)c1 [Example 204, 3-bromo-N-({4-chloro-3-[(3-chloro-5-cyanophenyl)oxy]-2-fluorophenyl}methyl)-1H-pyrrole-2-carboxamide] | > 8.00

Same assay, conditions: Human immunodeficiency virus 1, HeLa, HeLa-CD4-LTR-β-gal cells, wild type virus; read-out: WTRVA activity level

Compound | pIC50
CCc1c(C(=O)NCc2ccc(Cl)c(Oc3cc(Cl)cc(C#N)c3)c2F)[nH]c2ccc(OC)cc12 [Example 81, N-({4-chloro-3-[(3-chloro-5-cyanophenyl)oxy]-2-fluorophenyl}methyl)-3-ethyl-5-(methyloxy)-1H-indole-2-carboxamide trifluoroacetate] | 6.00 to 8.00
N#Cc1cc(Cl)cc(Oc2c(Cl)ccc(CNC(=O)c3cc4cc(Cl)ccc4o3)c2F)c1 [Example 49, 5-chloro-N-({4-chloro-3-[(3-chloro-5-cyanophenyl)oxy]-2-fluorophenyl}methyl)-1-benzofuran-2-carboxamide trifluoroacetate] | < 6.00
CC(=O)c1ccc2cc(C(=O)NCc3ccc(Cl)c(Oc4cc(Cl)cc(C#N)c4)c3F)[nH]c2c1 [Example 78, 6-acetyl-N-({4-chloro-3-[(3-chloro-5-cyanophenyl)oxy]-2-fluorophenyl}methyl)-1H-indole-2-carboxamide trifluoroacetate] | > 8.00
Cc1nc(Cl)c(C(=O)NCc2ccc(Cl)c(Oc3cc(Cl)cc(C#N)c3)c2F)[nH]1 [Example 137, 4-chloro-N-({4-chloro-3-[(3-chloro-5-cyanophenyl)oxy]-2-fluorophenyl}methyl)-2-methyl-1H-imidazole-5-carboxamide] | > 8.00
COc1ccc(C(=O)NCc2ccc(Cl)c(Oc3cc(Cl)cc(C#N)c3)c2F)cn1 [Example 42, N-({4-chloro-3-[(3-chloro-5-cyanophenyl)oxy]-2-fluorophenyl}methyl)-6-(methyloxy)-3-pyridinecarboxamide] | 6.00 to 8.00
N#Cc1cc(Cl)cc(Oc2cc(CNC(=O)c3cc4cc([N+](=O)[O-])ccc4[nH]3)ccc2Cl)c1 [Example 9, N-({4-chloro-3-[(3-chloro-5-cyanophenyl)oxy]phenyl}methyl)-5-nitro-1H-indole-2-carboxamide] | < 6.00
N#Cc1cc(Cl)cc(Oc2c(Cl)ccc(CNC(=O)c3cc4cc(OCC(CO)CO)ccc4[nH]3)c2F)c1 [Example 22, N-({4-chloro-3-[(3-chloro-5-cyanophenyl)oxy]-2-fluorophenyl}methyl)-5-{[3-hydroxy-2-(hydroxymethyl)propyl]oxy}-1H-indole-2-carboxamide] | > 8.00
COC(=O)c1ccc(C(=O)NCc2ccc(Cl)c(Oc3cc(Cl)cc(C#N)c3)c2F)cc1 [Example 15, Methyl 4-{[({4-chloro-3-[(3-chloro-5-cyanophenyl)oxy]-2-fluorophenyl}methyl)amino]carbonyl}benzoate] | 6.00 to 8.00
N#Cc1cc(Cl)cc(Oc2c(Cl)ccc(CNC(=O)c3cc4cc(OC(F)(F)F)ccc4[nH]3)c2F)c1 [Example 27, N-({4-chloro-3-[(3-chloro-5-cyanophenyl)oxy]-2-fluorophenyl}methyl)-5-[(trifluoromethyl)oxy]-1H-indole-2-carboxamide] | 6.00 to 8.00
CC(C)(C)OC(=O)N1CCC[C@H]1C(=O)Nc1ccc2[nH]c(C(=O)NCc3ccc(Cl)c(Oc4cc(Cl)cc(C#N)c4)c3F)cc2c1 [Example 117, 1,1-dimethylethyl (2S)-2-{[(2-{[({4-chloro-3-[(3-chloro-5-cyanophenyl)oxy]-2-fluorophenyl}methyl)amino]carbonyl}-1H-indol-5-yl)amino]carbonyl}-1-pyrrolidinecarboxylate] | > 8.00
N#Cc1cc(Cl)cc(Oc2c(Cl)ccc(CNC(=O)c3cc4cc([N+](=O)[O-])ccc4o3)c2F)c1 [Example 50, N-({4-chloro-3-[(3-chloro-5-cyanophenyl)oxy]-2-fluorophenyl}methyl)-5-nitro-1-benzofuran-2-carboxamide trifluoroacetate] | 6.00 to 8.00
Cc1ccc2[nH]c(C(=O)NCc3ccc(Cl)c(Oc4cc(Cl)cc(C#N)c4)c3F)c(C)c2c1 [Example 52, N-({4-chloro-3-[(3-chloro-5-cyanophenyl)oxy]-2-fluorophenyl}methyl)-3,5-dimethyl-1H-indole-2-carboxamide trifluoroacetate] | 6.00 to 8.00
Cc1cc(Br)cc2cc(C(=O)NCc3ccc(Cl)c(Oc4cc(Cl)cc(C#N)c4)c3F)[nH]c12 [Example 30, 5-bromo-N-({4-chloro-3-[(3-chloro-5-cyanophenyl)oxy]-2-fluorophenyl}methyl)-7-methyl-1H-indole-2-carboxamide] | 6.00 to 8.00
CS(=O)(=O)c1ccc(C(=O)NCc2ccc(Cl)c(Oc3cc(Cl)cc(C#N)c3)c2)c(Cl)c1 [Example 8, 2-chloro-N-({4-chloro-3-[(3-chloro-5-cyanophenyl)oxy]phenyl}methyl)-4-(methylsulfonyl)benzamide] | 6.00 to 8.00
Cc1nc(Br)c(C(=O)NCc2ccc(Cl)c(Oc3cc(Cl)cc(C#N)c3)c2F)[nH]1 [Example 134, 4-bromo-N-({4-chloro-3-[(3-chloro-5-cyanophenyl)oxy]-2-fluorophenyl}methyl)-2-methyl-1H-imidazole-5-carboxamide] | > 8.00
CCCCc1nc(Cl)c(C(=O)NCc2ccc(Cl)c(Oc3cc(Cl)cc(C#N)c3)c2F)[nH]1 [Example 140, 2-butyl-4-chloro-N-({4-chloro-3-[(3-chloro-5-cyanophenyl)oxy]-2-fluorophenyl}methyl)-1H-imidazole-5-carboxamide trifluoroacetate] | > 8.00
COc1ccc2c(C(=O)NCc3ccc(Cl)c(Oc4cc(Cl)cc(C#N)c4)c3)c[nH]c2c1 [Example 3, N-({4-chloro-3-[(3-chloro-5-cyanophenyl)oxy]phenyl}methyl)-6-(methyloxy)-1H-indole-3-carboxamide] | < 6.00
Cn1ccnc1C(=O)NCc1ccc(Cl)c(Oc2cc(Cl)cc(C#N)c2)c1F [Example 72, N-({4-chloro-3-[(3-chloro-5-cyanophenyl)oxy]-2-fluorophenyl}methyl)-1-methyl-1H-imidazole-2-carboxamide trifluoroacetate] | 6.00 to 8.00
N#Cc1cc(Cl)cc(Oc2c(Cl)ccc(CNC(=O)c3cc4c5c(ccc4[nH]3)N(C(N)=O)CC5)c2F)c1 [Example 44, N^2-({4-chloro-3-[(3-chloro-5-cyanophenyl)oxy]-2-fluorophenyl}methyl)-7,8-dihydropyrrolo[3,2-e]indole-2,6(3H)-dicarboxamide] | > 8.00
CC(=O)Nc1ccc2[nH]c(C(=O)NCc3ccc(Cl)c(Oc4cc(Cl)cc(C#N)c4)c3F)cc2c1 [Example 121, 5-(acetylamino)-N-({4-chloro-3-[(3-chloro-5-cyanophenyl)oxy]-2-fluorophenyl}methyl)-1H-indole-2-carboxamide] | > 8.00
N#Cc1cc(Cl)cc(Oc2c(Cl)ccc(CNC(=O)c3[nH]c4ccccc4c3Br)c2F)c1 [Example 53, 3-bromo-N-({4-chloro-3-[(3-chloro-5-cyanophenyl)oxy]-2-fluorophenyl}methyl)-1H-indole-2-carboxamide] | 6.00 to 8.00
N#Cc1cc(Cl)cc(Oc2c(Cl)ccc(CNC(=O)c3ncc[nH]3)c2F)c1 [Example 59, N-({4-chloro-3-[(3-chloro-5-cyanophenyl)oxy]-2-fluorophenyl}methyl)-1H-imidazole-2-carboxamide trifluoroacetate] | > 8.00
COc1ccc2[nH]c(C(=O)NCc3ccc(Cl)c(Oc4cc(Cl)cc(C#N)c4)c3)cc2c1 [Example 10, N-({4-chloro-3-[(3-chloro-5-cyanophenyl)oxy]phenyl}methyl)-5-(methyloxy)-1H-indole-2-carboxamide] | 6.00 to 8.00
COc1ccc(C(=O)NCc2ccc(Cl)c(Oc3cc(Cl)cc(C#N)c3)c2)c(OC)c1 [Example 6, N-({4-chloro-3-[(3-chloro-5-cyanophenyl)oxy]phenyl}methyl)-2,4-bis(methyloxy)benzamide] | 6.00 to 8.00
